# In PubChem BioAssay (NCI):
# Values joined by “and” are separate entries in the source; they are usually repeats but may differ in a detail not shown here. Identical values can stand only once.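 Results reflect a 48-hour exposure of cells in 96-well plates to compound at five concentrations. At the GI50, growth is halved. Definition used: TGI = concentration required for complete inhibition of growth.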
# Columns and labels:
# Experiment in all cases: growth of human tumour cells (NCI), 48 h
# MALME-3M melanoma = system: MALME-3M melanoma
# SF-268 CNS = system: SF-268 CNS
# OVCAR-5 ovarian = system: OVCAR-5 ovarian
# HS 578T breast = system: HS 578T breast
# SN12C renal = system: SN12C renal
# EKVX NSCLC = system: EKVX NSCLC
# U251 CNS = system: U251 CNS
# DU-145 prostate = system: DU-145 prostate
# MCF7 breast = system: MCF7 breast
# HT29 colon = system: HT29 colon
Structure (SMILES),GI50 (MALME-3M melanoma) [µM],TGI (MALME-3M melanoma) [µM],GI50 (SF-268 CNS) [µM],TGI (SF-268 CNS),GI50 (OVCAR-5 ovarian) [µM],TGI (OVCAR-5 ovarian) [µM],GI50 (HS 578T breast) [µM],TGI (HS 578T breast) [µM],GI50 (SN12C renal) [µM],TGI (SN12C renal) [µM],GI50 (EKVX NSCLC) [µM],TGI (EKVX NSCLC) [µM],GI50 (U251 CNS) [µM],TGI (U251 CNS) [µM],GI50 (DU-145 prostate) [µM],TGI (DU-145 prostate) [µM],GI50 (MCF7 breast) [µM],TGI (MCF7 breast) [µM],GI50 (HT29 colon) [µM],TGI (HT29 colon) [µM]
CCOC(=O)C1CCCCN1C(=O)c1ccc(Nc2cnc3cc(C(F)(F)F)ccc3n2)cc1 (stereo not drawn),6.89,22.1,13.2,32.7 µM,10.3,23,3.18,14.7,16.2,31.5,36,> 100,11.3,32.2,20.5,92.2,10.2,25.1,,
Cc1nn(C)c(COc2ccc(N3CCN(S(=O)(=O)N(C)C)CC3)cc2)c1-c1cccc2c(CCCOc3cccc4ccccc34)c(C(=O)O)n(CCN3CCOCC3)c12,3.15,15.5,3.66,15.8 µM,3.96,23.5,2.95,14.7,3.25,12.4,3.59,15,3.13,11.5,5.03,16.7,2.84,11,2.63,6.92
COC(=O)C1=C(C)NC(C)=C(C(=O)OCC(C)C)C1c1ccccc1[N+](=O)[O-] (stereo not drawn),4.47,17.2,7.8,22.7 µM,7.52,22.5,13.9,> 100,4.15,19.8,8.06,32.7,4.27,17.6,5.48,34.7,3.58,16.1,9.2,22.9
N#Cc1nc2c(S(=O)(=O)c3ccc(Cl)cc3)c(N)n(CCCN3CCOCC3)c2nc1C#N,3.55,18.1,5.19,35.4 µM,20.8,54.9,1.76,5.06,10,> 100,10.6,22.7,10.8,26.7,3.79,19.1,3.76,16.5,5.96,> 100
CC1=C(CCC(C)NCc2ccc(OCCCN3CCCCC3)cc2)C(C)(C)CCC1 (stereo not drawn),1.6,3.29,1.49,3.08 µM,1.91,4.11,1.61,3.79,1.87,3.95,1.61,3.94,1.57,3.28,1.85,4.17,0.286,1.17,0.384,1.38
O=c1c(O)c(-c2ccc(O)c(O)c2)oc2cc(O)cc(O)c12,62,> 100,10.2,75.5 µM and > 100 µM,30.2,> 100,4.12,> 50.7,10.5,> 100,23.9,> 100,8.68,> 100,20,> 100,7.95,> 100,37.3,> 100
